# Measured values taken from patent US11446299B2, “Carbazole EHop-016 derivatives as anticancer and anti-migratory agents” (UNIVERSITY OF PUERTO RICO, priority 2017, dated 2022).
# Assays:
# MDA-MB-231 cancer cells = assay: Sulforhodamine B (SRB) growth inhibition assay; type: cell-based, human
# In short: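 Cells at 1.9×10^4/well exposed to compounds at 50, 25, 12.5, 6.3 and 1.6 μM in triplicate for 24 hrs at 37° C; DMSO 0.1% as negative control. TCA-fixed, SRB-stained, absorbance at 510 nm; GI50 from variable-slope sigmoidal dose-response curves.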
# [1] = HV-118 toxicity assessment in mice; type: in vivo; conditions: 1 mg/kg BW
# Protocol: FIG. 19 (A-C). HV-118 toxicity assessment. Blood collected at necropsy was used for FIG. 19A. complete blood count (CBC) analysis and FIG. 19B. determination of serum levels of liver enzymes Alanine Aminotranferase (ALT), Aspartate Aminotransferse (AST), and Alkaline phosphatase (ALP). N=4-5 mice/group; error bars represent ±SEM. FIG. 19C. Average mouse weight as a function of days following HV-118 administration. N=13-15 mice/group.
# An in vivo study was performed to assess HV-118 toxicity and test its effects in mammary tumor growth and metastasis. Immunocompromised mice were inoculated with green fluorescent protein (GFP)-tagged MDA-MB-231 cells. After tumors reached an average size of 80 mm^3, mice (n=15/group) were administered with control or HV-118 at 1 mg/kg body weight (BW) by intraperitoneal (i.p.) injection every day from Monday to Friday for approximately 2 months. The effects of HV-118 on tumor growth were monitored weekly by in situ fluorescence image analysis (starting from day 1 of treatment). Mammary tumor growth was quantified using Image J software, as the pixel intensity (integrated density) determined from digital tracing of the fluorescent tumor area at each imaging session and calculated as a function of the fluorescence intensity on day one of treatment. At necropsy, blood was collected, and organs were dissected and stored in liquid nitrogen. Metastatic foci were quantified for fluorescence intensity and area of fluorescence (lesion size) for each organ by Image J analysis of digital images from a fluorescence stero microscope. […] Toxicity was assessed by: 1) performing a hematologic profile (complete blood count (CBC) analysis), 2) measuring serum levels of liver enzymes Alanine Aminotranferase (ALT), Aspartate Aminotransferse (AST), and Alkaline phosphatase (ALP), and 3) monitoring animal weight throughout the study.
# GFP-MDA-MB-231 cells = assay: Mammary tumor growth and metastasis in immunocompromised mice; type: in vivo; conditions: 1 mg/kg BW i.p., Monday to Friday, approximately 2 months
# Protocol: FIG. 18 (A-D). Effect of HV-118 on mammary tumor growth. Severe combined immune deficiency (SCID) mice were inoculated at the mammary fat pad with GFP-MDA-MB-231 cells and treated with 0 (Vehicle) or 1 mg/kg BW HV-118 (5× a wk). FIG. 18A. Upper panel, representative images and lower panel, average relative tumor growth on last day. FIG. 18B. Relative tumor growth as a function of days following HV-118 administration. Lungs and livers were removed at necropsy and imaged for fluorescent metastatic foci. FIG. 18C. Representative organs under fluorescence microscopy for 0 (Vehicle) and 1 mg/kg BW HV-118 treatment. FIG. 18D. […]
# Preliminary data supporting HV-118 as a potent inhibitor of Rac activation in breast cancer cells was confirmed. […] Tumor growth and metastasis were assessed by fluorescent imaging. HV-118 toxicity was also determined.
# An in vivo study was performed to assess HV-118 toxicity and test its effects in mammary tumor growth and metastasis. […] The effects of HV-118 on tumor growth were monitored weekly by in situ fluorescence image analysis (starting from day 1 of treatment). Mammary tumor growth was quantified using Image J software, as the pixel intensity (integrated density) determined from digital tracing of the fluorescent tumor area at each imaging session and calculated as a function of the fluorescence intensity on day one of treatment. […]
Compound,"GI50 (MDA-MB-231 cancer cells; Homo sapiens, MDA-MB-231, SRB assay, 24 h treatment, mean of triplicate, SD <10%)","anti-proliferative activity / cytotoxicity in words (MDA-MB-231 cancer cells; MDA-MB-231, concentrations ≤50 μM)",toxicity at the tested dose [1],hematologic profile (complete blood count) ([1]; blood at necropsy),"serum levels of ALT, AST, or ALP ([1]; blood at necropsy)",mice weights ([1]; throughout the study),reduction in metastasis to lung and liver (GFP-MDA-MB-231 cells),reduction in tumor growth (GFP-MDA-MB-231 cells)
"CCn1c2ccccc2c2cc(C(=O)Nc3cccnc3N3CCOCC3)ccc21 [Compound 11b, 9-Ethyl-9H-carbazole-3-carboxylic Acid (2-morpholin-4-yl-pyridin-3-yl)-amide]",> 50 µM,minimal cytotoxicity,–,–,–,–,–,–
"CCn1c2ccccc2c2cc(Nc3cc(C)nc(Cl)n3)ccc21 [HV-118, (2-Chloro-6-methyl-pyrimidin-4-yl)-(9-ethyl-9H-carbazol-3-yl)-amine]",–,–,no toxicity,no changes,no changes,no changes,> 90%,30%
